These results are taken from patent publication US10160729B2, “Hsp70 modulators and methods for making and using the same” (Memorial Sloan Kettering Cancer Center, priority 2014, dated 2018).

The test relates to MOLM-13 cells. Nature of the test: Caspase cleavage assay (Caspase3, 7 activation). The test is classed as cell-based. The following applies: Homo sapiens, 16 h treatment, caspase substrate Z-DEVD-R110, read-out: c* Concentration at which 50% of the maximum signal was achieved (caspase activation). The gist of the method: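 Cells (30,000/well, RPMI) treated 16 h with compound or DMSO in triplicate, then given buffer with 10 mM HEPES pH 7.5, 2 mM EDTA, 0.1% CHAPS and 25 μM Z-DEVD-R110. Fluorescence read once signal stabilized; results given as percentage increase in apoptotic cells versus DMSO-treated control.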
Take `CN(C)[C@@H]1CCN(c2ncc(Sc3ccc(C(N)=O)cc3)c(OCc3ccnc(N)c3)n2)C1` [compound 206, (R)-4-((4-((2-Aminopyridin-4-yl)methoxy)-2-(3-(dimethylamino)pyrrolidin-1-yl)pyrimidin-5-yl)thio)benzamide]: the EC50 was in the range of 400 to 1000 nM.

In the case of `CN(C)[C@@H]1CCN(c2ncc(Sc3ccc(C(N)=O)cc3)c(OCc3ccccc3)n2)C1` [compound 207, (R)-4-((4-(Benzyloxy)-2-(3-(dimethylamino)pyrrolidin-1-yl)pyrimidin-5-yl)thio)benzamide], the EC50 fell in the range of 400 to 1000 nM.

In the case of `COc1cc(COc2nc(N3CC[C@@H](N(C)C)C3)ncc2Sc2ccc(C(N)=O)cc2)ccc1F` [compound 208, (R)-4-((2-(3-(Dimethylamino)pyrrolidin-1-yl)-4-((4-fluoro-3-methoxybenzyl)oxy)pyrimidin-5-yl)thio)benzamide], the EC50 is less than 200 nM.

With `COc1cc(COc2nc(N3CC[C@@H](N(C)C)C3)ncc2Sc2ccc(C(N)=O)c(Cl)c2)ccc1F` [compound 212, (R)-2-Chloro-4-((2-(3-(dimethylamino)pyrrolidin-1-yl)-4-((4-fluoro-3-methoxybenzyl)oxy)pyrimidin-5-yl)thio)benzamide], the EC50 is less than 200 nM.

Consider `COc1cc(COc2nc(N3CC[C@@H](N)C3)ncc2Sc2ccc(C(N)=O)c(Cl)c2)ccc1F` [compound 213, (R)-4-((2-(3-Aminopyrrolidin-1-yl)-4-((4-fluoro-3-methoxybenzyl)oxy)pyrimidin-5-yl)thio)-2-chlorobenzamide], for which the EC50 was no less than 1200 nM.

On to `CN[C@@H]1CCN(c2ncc(Sc3ccc(C(N)=O)c(Cl)c3)c(OCc3ccc(F)c(OC)c3)n2)C1` [compound 214, (R)-2-Chloro-4-((4-((4-fluoro-3-methoxybenzyl)oxy)-2-(3-(methylamino)pyrrolidin-1-yl)pyrimidin-5-yl)thio)benzamide], for which the EC50 is 400 to 1000 nM.

For `CN(C)[C@@H]1CCN(c2ncc(Sc3ccc(C(N)=O)c(C(F)(F)F)c3)c(OCc3cccc(Cl)c3)n2)C1` [compound 218, (R)-4-((4-((3-Chlorobenzyl)oxy)-2-(3-(dimethylamino)pyrrolidin-1-yl)pyrimidin-5-yl)thio)-2-(trifluoromethyl)benzamide], the EC50 was less than 200 nM.

With `CN(C)C1CN(c2ncc(Sc3ccc(C(N)=O)c(C(F)(F)F)c3)c(OCc3cccc(Cl)c3)n2)C1` [compound 225, 4-((4-((3-Chlorobenzyl)oxy)-2-(3-(dimethylamino)azetidin-1-yl)pyrimidin-5-yl)thio)-2-(trifluoromethyl)benzamide], the EC50 was in the range of 200 to 400 nM.

As for `C#CCCCCN1CCN(c2ncc(Sc3ccc(C(N)=O)c(C(F)(F)F)c3)c(OCc3cccc(Cl)c3)n2)CC1` [compound 226, 4-((4-((3-Chlorobenzyl)oxy)-2-(4-(hex-5-yn-1-yl)piperazin-1-yl)pyrimidin-5-yl)thio)-2-(trifluoromethyl)benzamide], the EC50 was 200 to 400 nM.

With `NC(=O)c1ccc(Sc2cnc(N3CCN(C4CC4)CC3)nc2OCc2cccc(Cl)c2)cc1C(F)(F)F` [compound 227, 4-((4-((3-Chlorobenzyl)oxy)-2-(4-cyclopropylpiperazin-1-yl)pyrimidin-5-yl)thio)-2-(trifluoromethyl)benzamide], the EC50 was no less than 1200 nM.

As to `NC(=O)c1ccc(Sc2cnc(N3CCN(Cc4ccco4)CC3)nc2OCc2cccc(Cl)c2)cc1C(F)(F)F` [compound 228, 4-((4-((3-Chlorobenzyl)oxy)-2-(4-(furan-2-ylmethyl)piperazin-1-yl)pyrimidin-5-yl)thio)-2-(trifluoromethyl)benzamide], the EC50 was less than 200 nM.

Consider `NC(=O)c1ccc(Sc2cnc(N3CCN(Cc4nccs4)CC3)nc2OCc2cccc(Cl)c2)cc1C(F)(F)F` [compound 229, 4-((4-((3-Chlorobenzyl)oxy)-2-(4-(thiazol-2-ylmethyl)piperazin-1-yl)pyrimidin-5-yl)thio)-2-(trifluoromethyl)benzamide], for which the EC50 was in the range of 200 to 400 nM.

For the compound `CN1CCN(c2ncc(Oc3ccc(C(N)=O)cc3)c(OCc3ccccc3)n2)CC1` [compound 282, 4-((4-(Benzyloxy)-2-(4-methylpiperazin-1-yl)pyrimidin-5-yl)oxy)benzamide], the EC50 is no less than 1200 nM.

Consider `COc1ccc(COc2nc(N3CCN(C)CC3)ncc2Oc2ccc(C(N)=O)cc2)cc1` [compound 283, 4-((4-((4-Methoxybenzyl)oxy)-2-(4-methylpiperazin-1-yl)pyrimidin-5-yl)oxy)benzamide], for which the EC50 is no less than 1200 nM.

Regarding `CN1CCN(c2ncc(Oc3ccc(C(N)=O)cc3)c(OCc3cccc(N(C)C)c3)n2)CC1` [compound 284, 4-((4-((3-(Dimethylamino)benzyl)oxy)-2-(4-methylpiperazin-1-yl)pyrimidin-5-yl)oxy)benzamide], the EC50 was 400 to 1000 nM.

For `CN1CCN(c2ncc(Cc3ccc(C(N)=O)cc3)c(OCc3ccccc3)n2)CC1` [compound 299, 4-((4-(Benzyloxy)-2-(4-methylpiperazin-1-yl)pyrimidin-5-yl)methyl)benzamide], the EC50 was in the range of 200 to 400 nM.

As for `CN1CCN(c2ncc(Cc3ccc(C(N)=O)cc3)c(OCc3ccc(C#N)cc3)n2)CC1` [compound 304, 4-((4-((4-Cyanobenzyl)oxy)-2-(4-methylpiperazin-1-yl)pyrimidin-5-yl)methyl)benzamide], the EC50 is no less than 1200 nM.

With `COc1cccc(COc2nc(N3CCN(C4(C)CC4)CC3)ncc2Sc2ccc(C(N)=O)cc2)c1` [compound 311, 4-((4-((3-Methoxybenzyl)oxy)-2-(4-(1-methylcyclopropyl)piperazin-1-yl)pyrimidin-5-yl)thio)benzamide], the EC50 is no less than 1200 nM.

Take `COc1cccc(COc2nc(N3CCN(C(C)(C)C4CC4)CC3)ncc2Sc2ccc(C(N)=O)cc2)c1` [compound 313, 4-((2-(4-(2-Cyclopropylpropan-2-yl)piperazin-1-yl)-4-((3-methoxybenzyl)oxy)pyrimidin-5-yl)thio)benzamide]: the EC50 is no less than 1200 nM.

As for `COc1cccc(COc2nc(N3CCN([C@@H](C)C4CC4)CC3)ncc2Sc2ccc(C(N)=O)cc2)c1` [compound 315, (S)-4-((2-(4-(1-Cyclopropylethyl)piperazin-1-yl)-4-((3-methoxybenzyl)oxy)pyrimidin-5-yl)thio)benzamide], the EC50 is 1000 to 1200 nM.

Turning to `COc1cccc(COc2nc(N3CCN([C@H](C)C4CC4)CC3)ncc2Sc2ccc(C(N)=O)cc2)c1` [compound 317, (R)-4-((2-(4-(1-Cyclopropylethyl)piperazin-1-yl)-4-((3-methoxybenzyl)oxy)pyrimidin-5-yl)thio)benzamide], the EC50 was no less than 1200 nM.

Turning to `COc1cccc(COc2nc(N3CCNC(=O)C3)ncc2Sc2ccc(C(N)=O)cc2)c1` [compound 319, 4-((4-((3-Methoxybenzyl)oxy)-2-(3-oxopiperazin-1-yl)pyrimidin-5-yl)thio)benzamide], the EC50 is no less than 1200 nM.

With `COc1cccc(COc2nc(N3CCN(CC4CC4)C(=O)C3)ncc2Sc2ccc(C(N)=O)cc2)c1` [compound 321, 4-((2-(4-(Cyclopropylmethyl)-3-oxopiperazin-1-yl)-4-((3-methoxybenzyl)oxy)pyrimidin-5-yl)thio)benzamide], the EC50 is less than 200 nM.

Take `COc1cccc(COc2nc(N3CCN(Cc4ncco4)CC3)ncc2Sc2ccc(C(N)=O)cc2)c1` [compound 323, 4-((4-((3-Methoxybenzyl)oxy)-2-(4-(oxazol-2-ylmethyl)piperazin-1-yl)pyrimidin-5-yl)thio)benzamide]: the EC50 was less than 200 nM.

As to `COc1cccc(COc2nc(N3CCN(CC#CCO)CC3)ncc2Sc2ccc(C(N)=O)cc2)c1` [compound 326, 4-((2-(4-(4-Hydroxybut-2-yn-1-yl)piperazin-1-yl)-4-((3-methoxybenzyl)oxy)pyrimidin-5-yl)thio)benzamide], the EC50 was less than 200 nM.

For `Cc1cccc(COc2nc(N3CCN(C)CC3)ncc2Sc2ccc(C(N)=O)c(C(F)(F)F)c2)c1` [compound 329, 4-((4-((3-Methylbenzyl)oxy)-2-(4-methylpiperazin-1-yl)pyrimidin-5-yl)thio)-2-(trifluoromethyl)benzamide], the EC50 was 400 to 1000 nM.

As for `CC(C)c1cccc(COc2nc(N3CCN(C)CC3)ncc2Sc2ccc(C(N)=O)c(C(F)(F)F)c2)c1` [compound 331, 4-((4-((3-Isopropylbenzyl)oxy)-2-(4-methylpiperazin-1-yl)pyrimidin-5-yl)thio)-2-(trifluoromethyl)benzamide], the EC50 was no less than 1200 nM.

On to `CCc1cccc(COc2nc(N3CCN(C)CC3)ncc2Sc2ccc(C(N)=O)c(C(F)(F)F)c2)c1` [compound 333, 4-((4-((3-Ethylbenzyl)oxy)-2-(4-methylpiperazin-1-yl)pyrimidin-5-yl)thio)-2-(trifluoromethyl)benzamide], for which the EC50 fell in the range of 1000 to 1200 nM.

Take `C#CCN1CCN(c2ncc(Sc3ccc(C(N)=O)cc3)c(OCc3cccc(N(C)C)c3)n2)CC1` [compound 336, 4-((4-((3-(Dimethylamino)benzyl)oxy)-2-(4-(prop-2-yn-1-yl)piperazin-1-yl)pyrimidin-5-yl)thio)benzamide]: the EC50 was less than 200 nM.

Consider `C#CCN1CCN(c2ncc(Sc3ccc(C(N)=O)c(C(F)(F)F)c3)c(OCc3cccc(N(C)C)c3)n2)CC1` [compound 339, 4-((4-((3-(Dimethylamino)benzyl)oxy)-2-(4-(prop-2-yn-1-yl)piperazin-1-yl)pyrimidin-5-yl)thio)-2-(trifluoromethyl)benzamide], for which the EC50 fell in the range of 400 to 1000 nM.

For `CN(C)c1cccc(COc2nc(N3CCN(C4CC4)CC3)ncc2Sc2ccc(C(N)=O)c(C(F)(F)F)c2)c1` [compound 341, 4-((2-(4-Cyclopropylpiperazin-1-yl)-4-((3-(dimethylamino)benzyl)oxy)pyrimidin-5-yl)thio)-2-(trifluoromethyl)benzamide], the EC50 is no less than 1200 nM.

For the compound `CN(C)c1cccc(COc2nc(N3CCN(CC4CC4)CC3)ncc2Sc2ccc(C(N)=O)c(C(F)(F)F)c2)c1` [compound 343, 4-((2-(4-(Cyclopropylmethyl)piperazin-1-yl)-4-((3-(dimethylamino)benzyl)oxy)pyrimidin-5-yl)thio)-2-(trifluoromethyl)benzamide], the EC50 is no less than 1200 nM.
